# Patent publication US8993717B2, “Gadd45beta targeting agents” (Imperial Innovations Limited, priority 2009, dated 2015)
# pIC50: −log10 of the molar value. Values joined by “and” are separate entries in the source; they are usually repeats but may differ in a detail not shown here. Identical values can stand only once. Like-named read-outs stand apart in the source and are kept apart here. Square brackets hold non-standard residues; d marks the D form. Peptide text beside a SMILES is read from it. * marks the point of attachment. Cbz = O=C(OCc1ccccc1)*
# Key:
# [1] = tested on: primary B and T lymphocytes; experiment: [3H]thymidine incorporation in purified primary B and T lymphocytes; assay type: cell-based, mouse; conditions: 100 μM, 72 hrs
# Experimental: In order to determine the in vitro therapeutic index of Z-/mDTPs, viability and proliferation assays were also performed with primary untransformed cells of both human and mouse origin, after treatment with either 10 μM or 100 μM of Z-DTP1, Z-DTP2 and Z-DNC. To this end, bone marrow stromal cells (BMSCs) peripheral blood mononuclear cells (PBMNCs) and mesenkymal stem cells (MSCs) were purified from healthy individuals after Ficoll-Hypaque density separation, in accordance with the protocols reported in the reference by Piva R. et all 2008 Blood 111: 2765-2775). BMSCs, PBMNCs, and MSCs cells were then treated for the times indicated and with the peptide concentrations specified in FIGS. 15A and 15B. To further establish the specificity of the cytotoxic activity of Z-/mDTPs for cancer cells, we also used primary B and T lymphocytes purified from the spleen and lymph nodes of mice, respectively, essentially as described in the reference by Shirakawa et al 2010 Cell Mal immunology 1-12. B and T cells were then activated by simulation with 1 ng/mL of LPS for 16 hrs and subsequently treated with 100 μM of Z-DTP1, Z-DTP2 or Z-DNC for 72 hrs as shown in FIG. 15B.
# [2] = tested on: KMS12 multiple myeloma cells; experiment: [3H]thymidine incorporation assay in KMS12; assay type: cell-based, human; conditions: read-out: IC50 [H^3] thymidine incorporation assay in KMS12
# Experimental: The effects of Z-DTPs on the survival/proliferation of multiple myeloma cells were evaluated by the use of [^3H]thymidine) incorporation assays, performed as also described in Example 8. The amount of cell proliferation measured with each of the Z-DTPs' concentrations used and with the untreated cultures (i.e. cultures incubated with medium alone), was expressed as counts per minute (c.p.m.)—which directly correlate with the extent of cell proliferation. All experiments were performed in triplicate.
# In these latter assays, the effects of Z-DTPs, Ac-DTPs and Z-LTPs on the survival/proliferation of tumour cell lines was investigated by measuring DNA synthesis using standard tritiated thymidine ([^3H]thymidine; [^3H]-TdR) uptake assays. In the analyses shown, cells were incubated for 24, 72, 120 or 144 hrs at 37° C. in the presence or absence of control or bioactive tetrapeptides, as indicated, then subjected to an additional incubation for 18 hrs with [^3H]-TdR (0.037 MBq/well, equivalent to 0.5 μCi/well). Cells were subsequently harvested onto glass fibre filter mats using a 96-well plate automated cell harvester, after which scintillation fluid was added, and [^3H]thymidine incorporation measured by liquid scintillation spectroscopy on a beta counter. The results are expressed as the percentages of the counts per minute (c.p.m.) (directly correlating with the extent of cell proliferation) measured with tetrapeptide-treated cultures relative to the c.p.m. measured with the corresponding cultures incubated with medium alone (untreated cells). All experiments were performed in triplicate.
# [3] = Mouse pharmacokinetics study, single i.v. injection; assay type: in vivo, male CD1 mice; conditions: for Last Time point: in h (unit assumed); for kel: 0.693/t1/2, table note; for half-life / clearance / Vd: male, CD1, mouse; for C0 / MRT inf / AUC: mouse; for AUC: read-out: AUC to Last; for acute toxicity in mice: single i.v. dose 10 mg/kg
# Experimental: Z-DTP2 and Z-mDTP3 were administered intravenously to mice. Blood samples were collected at up to 7 time points after intravenous (i.v.) injection of the compounds over 8 hrs, and plasma was analysed by LC-MS/MS to determine the concentration of the compounds at each time point.
# Three male CD1 mice, 25-30 grams each, were dosed per administration route per time-point, per compound. The test compound was administered intravenously (at a typical dose level of 10 mg of compound per kg of body weight). Animals were given free access to food throughout the study.
# Blood samples were centrifuged to obtain the plasma, which was then transferred to a separate labelled container. Aliquots from the individual time points for the three animals were analysed singly. Proteins were precipitated by adding three volumes of methanol and centrifuging for 30 min at 4° C. Aliquots of 100 μl of the resulting supernatants were diluted with 200 μl of HPLC grade water in wells of a 96-well plate.
# Standard curves were prepared in blank plasma matrices and treated in an identical manner to the samples. The plasma samples were quantified by LC-MS/MS, and the concentration of each compound in the plasma were reported in μg/mL.
# Pharmacokinetic parameters were calculated employing non-compartmental model analysis, as described in the web site http://www.pharsight.com/main.php
# The test compound concentration in plasma samples was measured by LC-MS/MS. The data were quantified using a five-point standard curve over a range of 3-3000 ng/mL.
# Proteins were precipitated from 50 μL aliquots of the individual plasma samples by adding 150 μL methanol. Following protein precipitation, plasma samples were centrifuged for 30 min at 4° C. Aliquots of 100 μL of the resulting supernatant were diluted with 200 μL of HPLC grade water in a 96 well plate. The test compound was then quantified by LC-MS/MS from a five-point standard curve prepared by spiking plasma with varying concentrations of test compound dissolved in DMSO over a final concentration range of 3-3000 ng/mL (final DMSO concentration 1%) and treated in an identical manner to the test samples as described above.
# [4] = plasma, iv, 10 mg/kg, 10 mg/kg i.v., male CD1 mice, read-out: Total CL (converted)
# [5] = plasma, iv, 10 mg/kg, 10 mg/kg i.v., male CD1 mice, read-out: Vss
# [6] = plasma, iv, 10 mg/kg, 10 mg/kg i.v., male CD1 mice, read-out: Vβ
# [7] = plasma, iv, 10 mg/kg i.v., male CD1 mice
SMILES,toxicity to primary B and T lymphocytes from mice [1],pIC50 ([2]; Day 1),pIC50 ([2]; Day 3),pIC50 ([2]; Day 6),"Last Time point ([3]; 10 mg/kg i.v., male CD1 mice)",kel [3],"half-life ([3]; in vivo, iv, 10 mg/kg, T1/2) [h]","clearance [3, 4]","Vd [3, 5] [L]","Vd [3, 6] [L]","C0 [3, 7] [ng/mL]","MRT inf [3, 7] [h]","AUC [3, 7] [ng·h/mL]",acute toxicity in mice [3],also measured
"NC(=O)[C@@H](Cc1ccccc1)NC(=O)[C@@H](Cc1c[nH]cn1)NC(=O)[C@@H](CC(=O)O)NC(=O)[C@@H](Cc1ccc(O)cc1)NC(=O)OCc1ccccc1 [Compound 1, Z-Tyr-Asp-His-Phe-NH2] (Cbz-[dY][dD][dH][dF]-NH2)",no toxicity,,,,,,,,,,,,,,
"N=C(N)NCCC[C@@H](NC(=O)[C@@H](CCC(=O)O)NC(=O)[C@@H](Cc1ccc(O)cc1)NC(=O)OCc1ccccc1)C(=O)N[C@H](Cc1ccccc1)C(N)=O [Compound 9, Z-D-Tyr-D-Glu-D-Arg-D-Phe-NH2] (Cbz-[dY][dE][dR][dF]-NH2)",no toxicity,5.89,6.85,7.18,8.0,kel/t1/2 = 0.693/2.08 = 0.3323 hr^−1,2.08,2.18 mL/min and 78.1 mL/min/kg,0.126,0.394,8740,0.973,2080,absence of acute toxicity,"pIC50 ([2]; Day 3, listed as Z-DTP2): 6.84; half-life ([3]; plasma, intravenous, text b344, read-out: half-lives in vivo (converted)): ~2 h; half-life ([3]; plasma, iv, mice, read-out: initial distributive half-life): ~0.0833 h; half-life ([3]; plasma, iv, mice, read-out: terminal half-life (converted)): ~8 h; clearance ([3]; plasma, iv, mice, read-out: values of total clearance in the range): 66 to 90 mL/min/kg"
"CC(=O)N[C@H](Cc1ccc(O)cc1)C(=O)N[C@H](CCCNC(=N)N)C(=O)N[C@H](Cc1ccccc1)C(N)=O [Compound 17, Ac-D-Tyr-D-Arg-D-Phe-NH2] (Ac-[dY]-[dR]-[dF]-NH2)",,6.45,7.09,7.80,6.667,kel/t1/2 = 0.693/2.08 = 0.3323 hr^−1,1.26,0.736 mL/min and 27.1 mL/min/kg,0.0126,0.0756,29100,0.281,6430,absence of acute toxicity,"pIC50 ([2]; Day 6, listed as mDTP3): 7.60; total clearance, times lower than that of Z-DTP2 ([3]; i.v., mice): 3 times; half-life ([3]; plasma, iv, 10 mg/kg, i.v., mice, read-out: initial distributive half-life): ~0.0833 h; half-life ([3]; plasma, iv, 10 mg/kg, i.v., mice, read-out: terminal half-life (converted)): ~8 h; clearance ([3]; plasma, iv, 10 mg/kg, i.v., mice, read-out: values of total clearance in the range): 22 to 27 mL/min/kg"
